Measured values from patent publication US7449466B2, “Cyclic aminophenyl sulfamate derivative” (Aska Pharmaceutical Co., Ltd., priority 2003, dated 2008).

Key:
[1] = system: Salmonella typhimurium TA100 and TA98, and Escherichia coli WP2 uvrA strains; assay: Miniscreen method, bacterial reverse mutation, with and without metabolic activation; assay type: cell-based; conditions: 10-1,000 μg/well; with and without Rat Liver S9mix; positive = revertant colonies twice or more of control
Experimental: (4) Miniscreen Method for Examining Presence of Genetic Toxicity:
Reverse mutation-inducing activity of the test comounds on bacteira was examined by Miniscreen method (Environ. Mol. Mutagen., 35, 72-77). Salmonella typhimurium TA100 and TA98, and Escherichia coli WP2 uvrA strains were used for the test. The test was conducted by plate incorporation method as to both cases where metabolic activation was not conducted, or conducted. The dosages were set at six levels as 0, 10, 50, 100, 500 and 1,000 μg/well.
To the minimum glucose-agar medium formed on a 6-well plate, 0.02 mL of a test compound solution or a solvent, 0.1 mL of 0.1 M sodium-phosphate buffer (pH=7.4), 0.025 mL of the bacterial suspension and 0.5 mL of soft agar solution were added per well and mixed. Where metabolic activation was conducted, 0.1M sodium-phosphate buffer (pH=7.4) was replaced with 0.1 mL of Rat Liver S9mix. After the soft agar solution solidified, the bacterial strains were cultured at 37° C. for 48 hours. At the end of the culture the number of revertant colonies on the plate was visually counted using a colony counter. Reverse mutation inducing activity of each of the test compounds was judged to be positive where the number of the revertant colonies increased by twice or more than that in the solvent-added control well, and judged negative where the increase was equivalent to the control. […]

[2] = system: Chinese hamster lung fibroblast cells (CHL/IU cells); assay: In vitro micronucleus cell induction test; assay type: cell-based
Experimental: (5) In vitro Micronucleus Cell Induction Test for Examining Genetic Toxicity: Presence of micronucleited cell-inducing activity of the test compounds on cultured cells due to chromosome aberration was examined by in vitro micronucleus test (mutagenesis test, 3, 238-245) by Lab-Tek method. The test was conducted by continuous treatment method, using Chinese hamster lung fibroblast cells (CHL/IU cells). The test compound concentration was set at three levels: 50% proliferation inhibitory concentration (IC50), and at the concentration levels attained by diluting it by common ratio one time and two times. […] One (1) mL of 0.075 M aqueous potassium chloride solution was added and a 5 minutes' hypotonic treatment was conducted at room temperature. After termination of the hypotonic treatment, the cells were fixed with a fixative (methanol: acetic acid=99:1). The slide detached from the chamber was stained with an aqueous […] orange solution (40 μg/mL). […] In the case wherein the micronucleited cells increased by a rate twice or more than that in the control well to which the solvent only had been added, the micronucleited cell induction activity was judged positive, and in the case wherein the increase rate was equivalent to that of the control, negative. The test results were as shown in the following Table 4, concurrently with the results of the test (4).

N#Cc1cc(OS(N)(=O)=O)ccc1N1CCN(CCCC2CCCCC2)CC1 [Example 13, 3-cyano-4-[4-(3-cyclohexylpropyl)piperazin-1-yl]-phenyl-O-sulfamate]
Miniscreen method (reverse mutation inducing activity) [1]: negative
In vitro micronucleited cell induction test [2]: negative
